Source: patent publication US20130199313A1, “METHOD FOR EVALUATING THE SOLUBILITY OF A CRYSTALLINE SUBSTANCE IN A POLYMER” (Abbott GmbH & Co, KGW, priority 2010, published 2013)

What was measured:
[1] = Annealing/DSC method for solubility of a crystalline substance in a polymer; format: physicochemical; conditions: 40 and 50% w/w IMC in PVP/VA, annealing vs scanning method
Description: Solute-polymer mixtures of desired concentrations were prepared by weighing the components. […] In a typical procedure, 0.5-1 g solute/polymer powder was milled at 10 Hz. Each cycle of milling was 2 min, followed by a 2 min cool-down. The cycle was repeated to achieve a desired milling time (2-60 min).
For annealing, 5-10 mg of sample was packed into a Tzero hermetic aluminum pan with three pin holes made in the lid to allow the escape of moisture and held isothermally at a desired temperature for as long as 600 minutes. Shorter annealing time was used if the system could apparently achieve equilibrium sooner.
Differential scanning calorimetry (DSC) was conducted using a TA Instruments DSC Q2000 at 10° C./min to determine whether residual crystals remain after annealing, i.e. whether a dissolution endotherm can be identified.

[2] = polymer PVP K-12; cited from earlier work
[3] = Flory-Huggins fit of solute activity from annealing-method solubility data (interaction parameter χ); format: physicochemical; conditions: polymer PVP K-12, Flory-Huggins fit
Description: The solute activity a1 of the drug in the saturated solution was calculated from the solubility of the crystalline drug in the polymer as follows:
In a1=(ΔHm/R)(1/Tm−1/T) (1)
where Tm is the melting point of the pure drug, ΔHm is its molar heat of melting, and T is the temperature at which the drug's solubility is measured (or its depressed melting point). […] According to the Flory-Huggins theory, the solute activity is given by
where v1 and v2 are the solute (drug) and solvent (polymer) volume fractions (v1+v2=1), x is the molar volume ratio of the polymer and the drug, and χ□ is the solute-solvent interaction parameter.
To the extent the reasonable fitting in FIG. 4 justifies the use of the Flory-Huggins model, the interaction parameter χ (equation 1) could be obtained.

For `COc1ccc2c(c1)c(CC(=O)O)c(C)n2C(=O)c1ccc(Cl)cc1` [IMC, indomethacin], the “solution temperature below that obtained with the scanning method” value [1] is given as “approximately 7 °C”, the “solute-solvent interaction parameter χ as determined by Marsac et al.” value [2] is given as −0.82 and the “solute-solvent interaction parameter χ as determined with the method of the present invention” value [3] is given as −8.2 ± 0.6.
